Experimental data published in article PMC12216625, “Identification of nanomolar adenosine A2A receptor ligands using reinforcement learning and structure-based drug design” (Nature Communications, 2025).

Tests used:
[1] = molecular target: T1, A2A receptor (human, wild-type) (Homo sapiens, UniProt P29274); assay: [3H]-ZM241385 radioligand competition, filtration; format: binding; details: read-out: A2A / pKi (± SD) (converted)
T1 construct: gene ADORA2A; wild-type human A2A; BacMam-transfected cells (CHO-K1 for the cAMP assay)
Excerpt: [3H]-ZM241385 radioligand competition, filtration on A2A receptor (human, wild-type)

[2] = molecular target: T1, A2A receptor (human, wild-type); assay: cAMP accumulation HTRF, agonist mode (compound alone); format: cell-based; details: read-out: A2A / pEC50 (± SD) (converted)
Excerpt: cAMP accumulation HTRF, agonist mode (compound alone) on A2A receptor (human, wild-type)

[3] = molecular target: T1, A2A receptor (human, wild-type); assay: cAMP accumulation HTRF, antagonist mode; format: cell-based; details: read-out: A2A / pIC50 (± SD) (converted)
Excerpt: cAMP accumulation HTRF, antagonist mode on A2A receptor (human, wild-type)

T1 sequence (P29274 whole entry): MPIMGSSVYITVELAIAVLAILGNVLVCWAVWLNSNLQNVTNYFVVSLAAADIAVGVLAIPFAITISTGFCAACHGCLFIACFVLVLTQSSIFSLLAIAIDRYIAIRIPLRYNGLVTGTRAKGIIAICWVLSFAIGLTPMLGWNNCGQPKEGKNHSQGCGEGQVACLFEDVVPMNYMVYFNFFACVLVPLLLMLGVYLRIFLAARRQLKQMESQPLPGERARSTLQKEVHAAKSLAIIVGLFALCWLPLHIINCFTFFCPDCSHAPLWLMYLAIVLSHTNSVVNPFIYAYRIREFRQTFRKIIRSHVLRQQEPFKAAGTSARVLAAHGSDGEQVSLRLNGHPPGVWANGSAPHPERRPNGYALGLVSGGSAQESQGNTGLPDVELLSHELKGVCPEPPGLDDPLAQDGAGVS

| Structure (SMILES) | Ki [1] [nM] | EC50 [2] [nM] | IC50 [3] [nM] |
| --- | --- | --- | --- |
| Cc1ccc(-c2nc(N)nn2-c2ccccc2)cc1 [compound 1, Compound 1] | 15800 | – | – |
| Nc1cc(NCc2ccccc2F)nc(-c2ccccn2)n1 [compound 3, Compound 3] | 1260 | – | – |
| Nc1nc(-c2ccc(O)cc2)c2cc(F)ccc2n1 [compound 5, Compound 5] | 2000 | 50.1 | – |
| Nc1nc2cc(-c3ccoc3)cc(-c3ccco3)n2n1 [compound 6, Compound 6] | 1260 | – | – |
| Nc1nc(-c2cccc(-n3ccnc3)n2)nc(-c2ccco2)n1 [compound 7, Compound 7] | 50.1 | 20 | 25.1 |
| Nc1nc(-c2ccco2)nc2c1ccn2-c1ccncc1 [compound 9, Compound 9] | 31.6 | 316 | 20 |
